We go through 6 compounds from patent publication US9284310B2, “Inhibitors of cytomegalovirus” (Boehringer Ingelheim International GmbH, priority 2012, dated 2016).

For assay [1], the system named is HCMV AD169 virus. Briefly: HCMV AD169 CPE Assay (Example A). In kind it is cell-based. The conditions noted are these: Human betaherpesvirus 5, AD169, MRC5, 216 h, MRC-5 cells, 9 days, MTS readout. How it is done:
This assay format is a CPE (Cytopathic effect)-based assay that determines the ability of compounds to protect cells against infection with a dye reduction assay (MTS of CellTiter 96® AQueous Non-Radioactive Cell Proliferation Assay from Promega). The conversion of MTS into aqueous, soluble formazan is performed by dehydrogenase enzymes found in metabolically active cells. The quantity of formazan product determined by absorbance at 490 nm is directly proportional to the number of living cells in culture.
(§1) Serial dilutions of the DMSO stock compound solution are performed using DMSO in columns 2-11 and 14-23. DMSO alone is present in columns 1, 12, 13 and 24. Four μL of the DMSO serial dilutions is obtained and diluted using […] of D-MEM 5% FBS culture medium to obtain 4% DMSO (7×).
To perform the assay, 10 µL of the freshly prepared 4% DMSO serial dilution plate is added to the assay plate containing 40 μL of MRC-5 cells plated the day before (10000 cells per well). Twenty μL of diluted virus is added to columns 2-12 and 14-24 and only D-MEM 5% FBS medium to uninfected control (columns 1 and 13) for a final DMSO concentration of 0.6%.
The virus dilution is based on the amount of virus required to obtain a Signal-to-Background of 3-4 (generally between 0.1 and 1 μL of virus stock per well or MOI=0.05). The assay plates are incubated at 37° C. with 5% CO2 for 9 days in order to obtain 100% CPE in infected control without compound (columns 12 and 24). Ten μL of freshly mixed room temperature MTS/PMS (1:20 v/v) is added and the plates are incubated at 37° C. with 5% CO2 for 4-5 h (until signal saturation at 2.3 in the 100% CPE control). The plates are sealed with TopSeal for biosafety and read on the Envision plate reader (Perkin-Elmer) or equivalent at OD 492 nm.

Assay [2] relates to HCMV AD169-Bac-Luc2 US2-US6 clone #26 virus. Description: HCMV AD169-Bac Luciferase Assay (Example B). In kind it is cell-based, Human Cytomegalovirus. The conditions noted are these: Human betaherpesvirus 5, AD169, MRC5, 72 h, read-out: EC50 Example B.
From the text: This assay format is a luciferase reporter-based assay that determines the ability of compounds to inhibit the infection by detecting a luciferase signal decrease following the addition of BIGlo substrate (preparation indicated below) directly in the culture media. Mono-oxygenation of luciferin is catalyzed by luciferase in the presence of Mg2+, ATP and molecular oxygen. The generation of oxyluciferin is a luminescent reaction that can be detected with the proper platereader. Human Cytomegalovirus AD169-Bac is obtained from Dr. Thomas Shenk at Princeton University (reference paper Yu et al. 2002—J. Virol. 76 (5):2316-2328, herein incorpoarated by reference) and modified by recombineering to introduce a humanized firefly luciferase gene (Luc2) at the US2-US6 position in the HCMV genome. The virus is expanded in MRC-5 cells.
as §1
To perform the assay, 7 μL of the freshly prepared 4% DMSO serial dilution plate is added to the assay plate containing […] of MRC-5 cells plated the day before (10000 cells per well). Seventeen μL of diluted virus is added to columns 2-12 and 14-24 and only D-MEM 5% FBS medium to uninfected control (columns 1 and 13) for a final DMSO concentration of 0.6%. The virus dilution is based on the amount of virus required to obtain the highest luciferase signal possible without CPE (generally between 0.05 and 1 μL of virus stock per well or MOI=0.02). The assay plates are incubated at 37° C. with 5% CO2 for 3 days. Fifteen μL of room temperature BIGlo buffer is added to room temperature assay plates also incubated at room temperature for 15 minutes. The plates are sealed with TopSeal for biosafety and the luminescence signal is read on the TopCount plate reader (Perkin-Elmer) or equivalent.

Assay [3] relates to HCMV AD169 virus. Briefly: HCMV AD169 qPCR 96-Well Assay (Example C). The conditions noted are these: Human betaherpesvirus 5, AD169, MRC5, 72 h; qPCR of viral DNA, MRC-5 cells, 3 days. In kind it is cell-based. How it is done: The hCMV quantitative PCR (qPCR) assay evaluates the ability of a compound to inhibit, directly or indirectly, the replication of hCMV viral DNA during the first 72 h following the infection. Compounds that inhibit either entry or the hCMV polymerase are active in this assay. Compounds are tested in the qPCR assay in 96-well plates, using a 9-point dose-response with 8 compounds for each 96-well plate. The assay was adapted from the method described by Schnepf et al., Rapid determination of antiviral drug susceptibility of human cytomegalovirus by real-time PCR, Antiviral Research 81 (2009) 64-67.
Final Concentrations: • 10 mM Tris-HCl pH8.0 • 50 mM KCl • 2 mM MgCl2 • 0.45% Tween20 • 0.45% Nonidet P40
Serial dilutions of the DMSO stock compound solution are performed using DMSO in columns 2-10. DMSO alone is present in columns 1 and 11. Column 12 remains empty. Diluted compounds are further diluted with DMEM 5% FBS cell culture medium.
To perform the assay, 25 μL of inhibitor dilutions freshly prepared is added to the assay plate containing 50 μL of MRC-5 cells plated the day before (30000 cells per well). In a 9 point dose-response, column 1 contains mock infected cells and serves at negative control, with the appropriate concentration of DMSO, columns 2 to 10 contain compound dilutions and column 11 contains infected cells, with the appropriate concentration of DMSO and serves as the positive control. Column 12 serves for the standard curve in the qPCR process. Twenty-five μL of virus diluted in DMEM 5% FBS medium (to infect at MOI=0.05) is added to columns 2-11 and only D-MEM 5% FBS medium to uninfected control (column 1) for a final DMSO concentration of 0.6%. Incubate plates at 37° C. in 5% CO2 incubator for 3 days. Whole cell lysates are then obtained by adding 100 μL of Cell lysis buffer to each well including freshly added Proteinase K at a ratio of 1:5 (i.e. 200 μL Proteinase K:1000 μL Cell Lysis buffer) and incubating the assay plate at 56° C. for 1 h. Plates are centrifuged at 1300 rpm for 2 minutes to remove any condensation before proceeding with the qPCR.
The cell lysate is carefully pipetted up and down to mix well and diluted 1:40 in H2O to give a final dilution of 1:80 relative to the 100 μL of lysis buffer that Is added to the cells. 5 μL of diluted lysate is used for the qPCR reaction. An incubation of 5 minutes at 95° C. in a PCR machine is required to inactivate the Proteinase K. The cell lysates can be stored at −20° C. or used to perform qPCR immediately.
A 81 bp fragment of US17 gene from AD169 is amplified by PCR using primers qHCMV7 and qHCMV8. The PCR product is cloned into pCR4 TOPO vector (Invitrogen) and a clone harboring the insert is selected. A mitochondrial DNA is also added to normalize the HCMV copy number. Serial dilutions of the US17 plasmid and mitochondrial DNA are performed in heat-inactivated lysis buffer at the same dilution as the cell lysates (1:80). Usually, a standard curve ranging from 10E6 to 10E2 copies (per well) is suitable.
A typical qPCR reaction consists of the following:
A qPCR cycle consists of an initial denaturation of DNA and activation of the Taq enzyme at 95° C. for 10 min followed by 45 cycles of 15 seconds at 95° C. and 1 min at 60° C. Fluorescence is measured at each cycle, following the elongation step at 60° C. The reaction, data acquisition and analysis are performed using AppliedBiosystems 7500 Real time PCR system or other suitable real-time PCR system.

As a reminder, the EC50 is the concentration needed to bring the measured effect to its halfway point. As for `O=C(Nc1ccc(-c2cnc(-c3cccc(C(F)(F)F)c3)[nH]2)cc1)c1cscn1` [Compound 1018], the EC50 in the assay on HCMV AD169 virus [1] is 0.38 µM; in assay [2], 0.1 µM; in the assay on HCMV AD169 virus [3], 0.27 µM.
Consider `O=C(Nc1ccc(-c2cnc(-c3cccc(C(F)(F)F)c3)[nH]2)cn1)c1cscn1` [Compound 1052], for which the EC50 is 4.2 µM in the assay with HCMV AD169 virus [1], 0.45 µM in assay [2] and 1.8 µM with HCMV AD169 virus [3].
`O=C(Nc1ccc(-c2cnc(-c3cccc(C(F)(F)F)c3)[nH]2)cc1)c1cocn1` [Compound 1143]: the figures for the EC50 (in the assay on HCMV AD169 virus [1]; in assay [2]) were 1.23 µM and 0.245 µM, respectively.
Turning to `O=C(O)CCn1nc(-c2cccc(Cl)c2)nc1-c1ccc(NC(=O)c2cscn2)cc1` [Compound 1041], the values for the EC50 (in the assay with HCMV AD169 virus [1]; in assay [2]) were 4.1 µM and 0.645 µM, respectively.
Take `O=C(Nc1ccc(-c2nnc(Nc3ccccc3)[nH]2)cc1)c1cscn1` [Compound 1039]: the values for the EC50 (with HCMV AD169 virus [1]; in assay [2]; with HCMV AD169 virus [3]) were 0.55 µM, 0.103 µM and 0.39 µM, respectively.
`O=C(Nc1ccc(-c2cccc(-c3cccc(Cl)c3)n2)cc1)c1cocn1` [Compound 1038]: the EC50 in the assay on HCMV AD169 virus [1] is 3.1 µM; in assay [2], 1.19 µM.
